Drawing on patent publication US6967196B1, “Sulfonamide compounds and uses thereof” (Bristol-Myers Squibb Company, priority 1999, dated 2005), this text covers IC50 for 31 compounds.

For orientation: IC50 means the concentration needed to halve the response being measured.

Structures can show the parent of a compound that is named as a salt.

The first test has as its system amyloid β production in transfected H4 (human neuroglioma) cells stably expressing APP constructs. The test can be described thus: In vitro cell-based assay of inhibitors of amyloid β production (ELISA). The settings on record: Homo sapiens, 16 h, transfected H4 cells stably expressing APP; approx. 16 h incubation; amyloid β in medium by ELISA; read-out: ACTIVITY (IC50, inhibition of amyloid β production). A digest of the protocol:
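Aβ secreted into the medium was determined by a two-antibody ELISA specific for the Aβ C-terminus, calibrated with known Aβ amounts. Before that, compounds (10-100 μM initially) were left on the cells for roughly 16 hours.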
A general note: An ELISA detects its analyte on a solid surface through an enzyme-linked reagent.
Consider `O=S(=O)(c1ccc(Cl)cc1)N(Cc1ccccc1Cn1ccnc1)c1cc(F)ccc1F` [Example 772, 4-chloro-N-(2,5-difluorophenyl)-N-[2-(1H-imidazol-1-ylmethyl)benzyl]benzenesulfonamide], for which the half-maximal inhibitory concentration (IC50) lay within 100 to 500 nM.

For the compound `O=C(C1CC1c1ccccc1)N1CCCCC1CCOc1ccccc1CN(c1cc(F)ccc1F)S(=O)(=O)c1ccc(Cl)cc1` (stereo not shown) [Example 780, 4-chloro-N-(2,5-difluorophenyl)-N-[2-(2-{1-[(2-phenylcyclopropyl)carbonyl]-2-piperidinyl}ethoxy)benzyl]benzenesulfonamide], the half-inhibitory concentration (IC50) lay in the range of 100 to 500 nM. The same measure, in the same setting: the same measure for `CCCC(C)N(Cc1ccccc1OCCCN1CCCCC1)S(=O)(=O)c1ccc(Cl)cc1` (stereo not shown) [Example 781, 4-chloro-N-(1-methylbutyl)-N-{2-[3-(1-piperidinyl)propoxy]benzyl}benzenesulfonamide hydrochloride]: 100 to 500 nM; for `O=C(c1cccc2ccccc12)N1CCCCC1CCOc1ccccc1CN(c1cc(F)ccc1F)S(=O)(=O)c1ccc(Cl)cc1` (stereo not shown) [Example 792, 4-chloro-N-(2,5-difluorophenyl)-N-(2-{2-[1-(1-naphthoyl)-2-piperidinyl]ethoxy}benzyl)benzenesulfonamide]: 100 to 500 nM. On the same count and under the same terms, the same measure for `CC(c1ccccc1OCCCN(C)S(=O)(=O)c1ccc(Cl)cc1)N(c1cc(F)ccc1F)S(=O)(=O)c1ccc(Cl)cc1` (stereo not shown) [Example 794, 4-chloro-N-[1-(2-{3-[[(4-chlorophenyl)sulfonyl](methyl)amino]propoxy}phenyl)ethyl]-N-(2,5-difluorophenyl)benzenesulfonamide]: 100 to 500 nM; for `O=C(c1ccc(F)c(F)c1F)N1CCCCC1CCOc1ccccc1CN(c1cc(F)ccc1F)S(=O)(=O)c1ccc(Cl)cc1` (stereo not shown) [Example 797, 4-chloro-N-(2,5-difluorophenyl)-N-(2-{2-[1-(2,3,4-trifluorobenzoyl)-2-piperidinyl]ethoxy}benzyl)benzenesulfonamide]: 100 to 500 nM; for `COc1ccc([S+]([O-])CCCOc2ccccc2CN(c2cc(F)ccc2F)S(=O)(=O)c2ccc(Cl)cc2)cc1` (stereo not shown) [Example 803, 4-chloro-N-(2,5-difluorophenyl)-N-(2-{3-[(4-methoxyphenyl)sulfinyl]propoxy}benzyl)benzenesulfonamide]: 100 to 500 nM. The same measure, in the same setting: in the case of `O=S(=O)(c1ccc(Cl)cc1)N(Cc1ccccc1OCCCN1CCCCC1)c1cccc(Br)c1` [Example 804, N-(3-bromophenyl)-4-chloro-N-{2-[3-(1-piperidinyl)propoxy]benzyl}benzenesulfonamide hydrochloride] it was 100 to 500 nM.

The test is the same for the next values; noted with them: Homo sapiens, 16 h, transfected H4 cells stably expressing APP; approximately 16 hours incubation; amyloid β in medium by ELISA; read-out: ACTIVITY (IC50, inhibition of amyloid β production).
As for `O=S(=O)(c1ccccc1)N(Cc1ccccc1OCCCN1CCC(O)C1)c1ccccc1` (stereo not shown) [Example 809, N-{2-[3-(3-hydroxy-1-pyrrolidinyl)propoxy]benzyl}-N-phenylbenzenesulfonamide hydrochloride], the IC50 lay within 100 to 500 nM.

With `O=S(=O)(c1ccc(Cl)cc1)N(Cc1ccccc1OCCCN1CCCCC1)c1cc(Cl)cc(Cl)c1` [Example 816, 4-chloro-N-(3,5-dichlorophenyl)-N-{2-[3-(1-piperidinyl)propoxy]benzyl}benzenesulfonamide hydrochloride], the IC50 is 100 to 500 nM.

In the case of `O=S(=O)(CCCOc1ccccc1CN(c1cc(F)ccc1F)S(=O)(=O)c1ccc(Cl)cc1)c1ccccc1` [Example 818, 4-chloro-N-(2,5-difluorophenyl)-N-{2-[3-(phenylsulfonyl)propoxy]benzyl}benzenesulfonamide], the IC50 was 100 to 500 nM.

As to `O=S(=O)(c1ccc(Cl)cc1)N(Cc1ccccc1OCCCN1CCCCC1)CC1CCC1` [Example 827, 4-chloro-N-(cyclobutylmethyl)-N-{2-[3-(1-piperidinyl)propoxy]benzyl}benzenesulfonamide hydrochloride], the IC50 was 100 to 500 nM. Same read-out and setting: the same measure for `O=C(/C=C\c1ccccc1)N1CCCCC1CCOc1ccccc1CN(c1cc(F)ccc1F)S(=O)(=O)c1ccc(Cl)cc1` (stereo not shown) [Example 832, 4-chloro-N-(2,5-difluorophenyl)-N-[2-(2-{1-[(2Z)-3-phenyl-2-propenoyl]-2-piperidinyl}ethoxy)benzyl]benzenesulfonamide]: 100 to 500 nM; for `O=S(=O)(c1ccc(Cl)cc1)N(Cc1ccccc1OCCCN1CCC(O)(C(F)(F)F)CC1)c1ccccc1` [Example 833, 4-chloro-N-(2-{3-[4-hydroxy-4-(trifluoromethyl)-1-piperidinyl]propoxy}benzyl)-N-phenylbenzenesulfonamide hydrochloride]: 100 to 500 nM. The same measure, in the same setting: in the case of `O=S(=O)(c1ccc(Cl)cc1)N(Cc1ccccc1OCCCN1CCCCC1)C1CCCC1` [Example 835, 4-chloro-N-cyclopentyl-N-{2-[3-(1-piperidinyl)propoxy]benzyl}benzenesulfonamide hydrochloride] it was 100 to 500 nM. As to `C[C@H](c1ccccc1OCCCN)N(c1cc(F)ccc1F)S(=O)(=O)c1cccc(Cl)c1` [Example 836, N-{(1R)-1-[2-(3-aminopropoxy)phenyl}ethyl}-3-chloro-N-(2,5-difluorophenyl)benzenesulfonamide], the IC50 fell in the range of 100 to 500 nM.

The test is the same for the next values; noted with them: transfected H4 cells stably expressing APP; approx. 16 h incubation; amyloid β in medium by ELISA; read-out: ACTIVITY (IC50, inhibition of amyloid β production).
Take `Cc1cccc(C(=O)N(C)CCCOc2ccccc2C(C)N(c2cc(F)ccc2F)S(=O)(=O)c2ccc(Cl)cc2)c1` (stereo not shown) [Example 766]: the IC50 fell in the range of 100 to 500 nM. Still for that read-out and setting: in the case of `CCOc1ccc(C(=O)N(C)CCCOc2ccccc2C(C)N(c2cc(F)ccc2F)S(=O)(=O)c2ccc(Cl)cc2)cc1` (stereo not shown) [Example 768] it was 100 to 500 nM; in that of `CC(c1ccccc1OCCCN(C)S(=O)(=O)/C=C/c1ccccc1)N(c1cc(F)ccc1F)S(=O)(=O)c1ccc(Cl)cc1` (stereo not shown) [Example 773, 4-chloro-N-(2,5-difluorophenyl)-N-(1-{2-[3-(methyl{[(E)-2-phenylethyl]sulfonyl}amino)propoxy]phenyl}ethyl)benzenesulfonamide], 100 to 500 nM. On the same count and under the same terms, in the case of `CCCCC(=O)N(CC)CC(C)Oc1ccccc1C(C)N(c1cc(F)ccc1F)S(=O)(=O)c1ccc(Cl)cc1` (stereo not shown) [Example 777, N-{2-[2-(1-{[(4-chlorophenyl)sulfonyl]-2,5-difluoroanilino}ethyl)phenoxy]propyl}-N-ethylpentamide] it was 100 to 500 nM. Same read-out and setting: in the case of `CCCC(C)N(Cc1ccccc1OCCCN1CCCCC1)S(=O)(=O)c1ccc(Cl)cc1` (stereo not shown) [Example 782, 4-chloro-N-(1-methylbutyl)-N-{2-[3-(1-piperidinyl)propoxy]benzyl}benzenesulfonamide hydrochloride] it was 100 to 500 nM; in that of `O=C(c1ccccc1F)N1CCCCC1CCOc1ccccc1CN(c1cc(F)ccc1F)S(=O)(=O)c1ccc(Cl)cc1` (stereo not shown) [Example 787], 100 to 500 nM.

Turning to `CC(c1ccccc1OCCCN(C)S(=O)(=O)c1cccc(C(F)(F)F)c1)N(c1cc(F)ccc1F)S(=O)(=O)c1ccc(Cl)cc1` (stereo not shown) [Example 788, N-{3-[2-(1-{[(4-chlorophenyl)sulfonyl]-2,5-difluoroanilino}ethyl)phenoxy]propyl}-N-methyl-3-(trifluoromethyl)benzenesulfonamide], the IC50 was in the range of 100 to 500 nM. With `CC(C)CC(=O)N(C)CCCOc1ccccc1CN(c1cc(F)ccc1F)S(=O)(=O)c1ccc(Cl)cc1` [Example 791, N-{3-[2-({[(4-chlorophenyl)sulfonyl]-2,5-difluoroanilino}methyl)phenoxy]propyl}-N,3-dimethylbutamide], the IC50 fell in the range of 100 to 500 nM.

For the compound `CC(c1ccccc1OCCN(C)C(=O)C(F)(F)C(F)(F)C(F)(F)F)N(c1cc(F)ccc1F)S(=O)(=O)c1ccc(Cl)cc1` (stereo not shown) [Example 796, N-{2-[2-(1-{[(4-chlorophenyl)sulfonyl]-2,5-difluoroanilino}ethyl)phenoxy]ethyl}-2,2,3,3,4,4,4-heptafluoro-N-methylbutanamide], the IC50 lay within 100 to 500 nM. In the case of `CCNC(=O)N(C)CCOc1ccccc1C(C)N(c1cc(F)ccc1F)S(=O)(=O)c1ccc(Cl)cc1` (stereo not shown) [Example 801, 4-chloro-N-(2,5-difluorophenyl)-N-[1-(2-{3-[[(ethylamino)carbonyl](methyl)amino]ethoxy}phenyl)ethyl]benzenesulfonamide], the IC50 is 100 to 500 nM.

Still in this test, the particulars now being: transfected H4 cells stably expressing APP; approximately 16 hours incubation; amyloid β in medium by ELISA; read-out: ACTIVITY (IC50, inhibition of amyloid β production).
On to `C[C@@H]1CCC[C@H](C)N1CCCOc1ccccc1CN(c1ccccc1)S(=O)(=O)c1ccc(Cl)cc1` [Example 812, 4-chloro-N-(2-{3-(2R, 6S)-2,6-dimethylpiperidinyl]propoxy}benzyl)-N-phenylbenzenesulfonamide hydrochloride], for which the IC50 lay within 100 to 500 nM. Same read-out and setting: in the case of `CC(c1ccccc1OCCCN(C)C(=O)Oc1ccccc1)N(c1cc(F)ccc1F)S(=O)(=O)c1ccc(Cl)cc1` (stereo not shown) [Example 826, phenyl 3-[2-(1-{[(4-chlorophenyl)sulfonyl]-2,5-difluoroanilino}ethyl)phenoxy]propyl(methyl)carbamate] it was 100 to 500 nM; in that of `CCCCC(CC)C(=O)N(C)CCCOc1ccccc1CN(c1cc(F)ccc1F)S(=O)(=O)c1ccc(Cl)cc1` (stereo not shown) [Example 837, N-{3-[2-({[(4-chlorophenyl)sulfonyl]-2,5-difluoroanilino}methyl)phenoxy]propyl}-2-ethyl N-methylhexanamide], 100 to 500 nM; in that of `CC(c1ccccc1OCCCN(C)C(=O)c1ccc(-c2ccccc2)cc1)N(c1cc(F)ccc1F)S(=O)(=O)c1ccc(Cl)cc1` (stereo not shown) [Example 840, N-{3-[2-(1-{[(4-chlorophenyl)sulfonyl]-2,5-difluoroanilino}ethyl)phenoxy]propyl}-N-methyl[1,1′-biphenyl]-4-carboxamide], 100 to 500 nM. Still for that read-out and setting: the same measure for `CN(CCCOc1ccccc1CN(c1cc(F)ccc1F)S(=O)(=O)c1ccc(Cl)cc1)C(=O)/C=C\c1ccccc1` [Example 841, (2Z)-N-{3-[2-({[(4-chlorophenyl)sulfonyl]-2,5-difluoroanilino}methyl)phenoxy]propyl}-N methyl-3-phenyl-2-propenamide]: 100 to 500 nM.
